{
  "source": "patent US6455570B1",
  "about": "“Polypyrrolinone based inhibitors of matrix metalloproteases” (The Trustees of the University of Pennsylvania, priority 2000, dated 2002)",
  "type_in_all_cases": "biochemical",
  "key": {"matrilysin (MMP-7)": {"molecular_target": "T1, matrilysin (MMP-7) (Homo sapiens, UniProt P09237)", "T1 sequence (P09237 95-267)": "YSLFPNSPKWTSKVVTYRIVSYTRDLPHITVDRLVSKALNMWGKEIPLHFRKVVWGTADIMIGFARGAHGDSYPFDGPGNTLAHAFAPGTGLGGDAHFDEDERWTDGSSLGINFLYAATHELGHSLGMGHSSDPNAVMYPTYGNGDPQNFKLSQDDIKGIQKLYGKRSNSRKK", "test": "metalloprotease activity assay by a published procedure (J. Duan, WO/0059285), matrilysin", "settings": "read-out: Ki, inhibitory activity against matrilysin (MMP-7)", "description": "(§1) Compounds of the present invention were assayed for metalloprotease activity by a published procedure (see, for example, J. Duan, WO/0059285). […] (Whittaker, M. et al. Chem. Rev. 1999 99:2735; Borkakoti, N. et al. Struct. Biol. 1994 1:106)"}, "[1]": {"molecular_target": "membrane type 2 matrix metalloprotease (MMP-15) (Homo sapiens, UniProt P51511)", "sequence (P51511 132-669, species assumed)": "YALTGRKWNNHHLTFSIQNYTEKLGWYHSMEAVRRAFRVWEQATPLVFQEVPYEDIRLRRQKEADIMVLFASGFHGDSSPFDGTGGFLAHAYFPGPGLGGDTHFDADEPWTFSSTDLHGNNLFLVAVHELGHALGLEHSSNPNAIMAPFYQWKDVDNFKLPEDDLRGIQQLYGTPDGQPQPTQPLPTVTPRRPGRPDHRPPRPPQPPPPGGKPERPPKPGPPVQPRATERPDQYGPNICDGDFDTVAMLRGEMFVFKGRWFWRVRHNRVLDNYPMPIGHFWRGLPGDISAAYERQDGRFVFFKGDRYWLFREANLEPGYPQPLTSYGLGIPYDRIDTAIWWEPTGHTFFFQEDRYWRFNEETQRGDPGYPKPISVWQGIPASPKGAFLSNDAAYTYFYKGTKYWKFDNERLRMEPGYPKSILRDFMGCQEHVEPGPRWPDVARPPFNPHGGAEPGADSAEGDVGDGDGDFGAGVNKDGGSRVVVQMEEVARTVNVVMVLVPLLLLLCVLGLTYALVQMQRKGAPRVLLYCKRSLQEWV", "test": "metalloprotease activity assay by a published procedure (J. Duan, WO/0059285), membrane type 2 MMP", "settings": "read-out: Ki, inhibitory activity against membrane type 2 matrix metalloprotease (MMP-15)", "description": "as §1"}, "gelatinase (MMP-2)": {"molecular_target": "T2, gelatinase (MMP-2) (Homo sapiens, UniProt P08253)", "T2 sequence (P08253 110-660)": "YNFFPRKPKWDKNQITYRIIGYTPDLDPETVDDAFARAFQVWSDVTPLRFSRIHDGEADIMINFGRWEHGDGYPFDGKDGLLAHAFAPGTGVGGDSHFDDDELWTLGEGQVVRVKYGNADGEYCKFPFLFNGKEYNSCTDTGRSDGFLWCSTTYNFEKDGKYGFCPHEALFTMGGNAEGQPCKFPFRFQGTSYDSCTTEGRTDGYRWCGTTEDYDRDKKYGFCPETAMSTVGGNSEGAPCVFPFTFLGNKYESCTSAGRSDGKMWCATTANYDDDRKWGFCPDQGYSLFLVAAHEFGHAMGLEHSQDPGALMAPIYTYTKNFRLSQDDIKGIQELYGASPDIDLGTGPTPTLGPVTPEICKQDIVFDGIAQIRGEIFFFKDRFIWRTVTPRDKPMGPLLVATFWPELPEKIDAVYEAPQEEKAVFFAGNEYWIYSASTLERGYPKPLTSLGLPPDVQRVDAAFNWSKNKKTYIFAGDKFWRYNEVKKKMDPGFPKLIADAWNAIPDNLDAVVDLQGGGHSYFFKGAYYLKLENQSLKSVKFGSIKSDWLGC", "test": "metalloprotease activity assay by a published procedure (J. Duan, WO/0059285), gelatinase", "settings": "read-out: Ki, inhibitory activity against gelatinase (MMP-2)", "description": "as §1"}},
  "data": [
    {"smiles": "CCOC(=O)C(C)C1=CNC(CC(C)C)(C2=CNC(CC(=O)NO)(CC(C)C)C2=O)C1=O", "note": "(single isomer, unassigned; (-)) [(−)-1a, Bispyrrolinone Hydroxamic Acid]", "values": [
      {"measurement": "Ki", "setting": "matrilysin (MMP-7)", "result": 6.4, "unit": "µM"},
      {"measurement": "Ki", "setting": "[1]", "result": 6.8, "unit": "µM"},
      {"measurement": "Ki", "setting": "gelatinase (MMP-2)", "result": 2.9, "unit": "µM"}
    ]}
  ]
}
